Experiments:
URAT1WT = biological target: T1, URAT1WT (Homo sapiens, UniProt Q96S37); experiment: 14C-urate uptake inhibition in HEK293 cells expressing WT URAT1; assay type: cell-based
T1 construct: expressed in transfected cells; host or cells: HEK293 cells (ATCC, CRL-3216), transient transfection with Lipofectamine 3000
T1 sequence (Q96S37 1-553): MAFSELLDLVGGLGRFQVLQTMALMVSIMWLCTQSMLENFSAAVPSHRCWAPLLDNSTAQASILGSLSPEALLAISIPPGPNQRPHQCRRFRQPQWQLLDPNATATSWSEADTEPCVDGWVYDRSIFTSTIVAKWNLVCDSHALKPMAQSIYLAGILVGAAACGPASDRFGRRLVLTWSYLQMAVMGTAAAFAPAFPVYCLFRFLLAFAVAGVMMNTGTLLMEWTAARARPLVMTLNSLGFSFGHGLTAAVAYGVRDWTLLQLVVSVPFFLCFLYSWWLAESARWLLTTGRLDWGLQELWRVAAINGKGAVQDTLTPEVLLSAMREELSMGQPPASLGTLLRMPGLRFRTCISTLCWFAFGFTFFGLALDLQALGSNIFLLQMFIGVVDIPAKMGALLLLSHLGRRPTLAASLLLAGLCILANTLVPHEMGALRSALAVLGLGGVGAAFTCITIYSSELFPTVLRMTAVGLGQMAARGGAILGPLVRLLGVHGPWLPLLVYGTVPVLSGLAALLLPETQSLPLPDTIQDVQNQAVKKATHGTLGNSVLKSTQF
Description: (§1) Data are shown as mean ± SD; n = 3 biological replicates. In a, b, uptake buffer: 20 mM HEPES pH 7.4, 125 mM sodium gluconate, 4.8 mM potassium gluconate, 1.2 mM monobasic potassium phosphate, 1.2 mM magnesium sulfate, 1.3 mM calcium gluconate, and 5.6 mM glucose. c Cryo-EM density maps of URAT1 in the apo and substrate-bound states. […] Putative lipid densities are in light cyan. d Cryo-EM density maps of URAT1 in the drug-bound states. […] Putative lipid densities are in light cyan. e Diagram of URAT1 topology. ECD, extracellular domain. f Structure of URAT1 in the apo state. g Slice view of URAT1 in the apo state, showing the central cavity and opening to the intracellular side.
(§2) Human embryonic kidney (HEK) 293 cells (ATCC, CRL-3216) were seeded onto poly(D-lysine)-coated 96-well plates at a density of 0.3 × 10^5 cells per well and cultured at 37 °C until reaching approximately 70%–80% confluence. The cells were transiently transfected with plasmids encoding the URAT1 WT or mutants using Lipofectamine 3000 (Invitrogen, L3000001), following the manufacturer’s protocol. The transfected cells were cultured at 37 °C for 12 h. Following this, 10 mM sodium butyrate was added, and the cells were further incubated at 30 °C for an additional 24 h. […]

URAT1EM = biological target: T2, URAT1EM (Homo sapiens, UniProt Q96S37, A280P/A304R/A323S/A335R/D313K/DEL311-312/DEL60-62/G295A/G309E/G331A/G338L/G65T/I63V/INS307H/L287I/L292P/L321M/L328V/L337V/L341F/L64S/M324V/M330S/M343V/P317I/P333E/Q332K/R291K/R301K/R325K/R342C/S329A/T288I/T289K/T314N/T339D/W294Q/W300R); experiment: 14C-urate uptake in HEK293 cells expressing URAT1EM (cryo-EM construct); assay type: cell-based
T2 construct: human URAT1 (residues 3–553), a (GGGGS)3 linker, and C-terminal DARPinoff7; expressed in transfected cells; host or cells: HEK293 cells (ATCC, CRL-3216), transient transfection
T2 sequence (Q96S37 with tags, fused parts or gaps DEL60-62/I63V/L64S/G65T/A280P/L287I/T288I/T289K/R291K/L292P/W294Q/G295A/W300R/R301K/A304R/INS307H/G309E/DEL311-312/D313K/T314N/P317I/L321M/A323S/M324V/R325K/L328V/S329A/M330S/G331A/Q332K/P333E/A335R/L337V/G338L/T339D/L341F/R342C/M343V): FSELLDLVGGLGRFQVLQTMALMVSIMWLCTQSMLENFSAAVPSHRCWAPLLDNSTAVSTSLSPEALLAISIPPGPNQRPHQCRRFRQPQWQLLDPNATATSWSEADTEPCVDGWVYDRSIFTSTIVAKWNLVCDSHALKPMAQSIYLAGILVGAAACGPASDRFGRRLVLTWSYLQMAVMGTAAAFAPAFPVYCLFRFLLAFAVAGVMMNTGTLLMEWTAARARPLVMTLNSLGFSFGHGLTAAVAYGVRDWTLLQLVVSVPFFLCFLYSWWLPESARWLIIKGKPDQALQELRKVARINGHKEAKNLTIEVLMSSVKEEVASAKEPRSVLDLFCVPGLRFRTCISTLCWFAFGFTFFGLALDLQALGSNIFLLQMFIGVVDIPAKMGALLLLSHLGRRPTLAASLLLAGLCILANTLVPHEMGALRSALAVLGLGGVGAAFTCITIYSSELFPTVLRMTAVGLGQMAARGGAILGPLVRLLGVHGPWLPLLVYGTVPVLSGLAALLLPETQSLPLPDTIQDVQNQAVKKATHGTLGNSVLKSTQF
Description: as §1, §2

O=C(c1cc(Cl)c(O)c(Cl)c1)N1CS(=O)(=O)c2ccccc21 [dotinurad]
IC50 (URAT1WT): 170 nM
IC50 (URAT1EM): 190 nM

— paper PMC11528023, “Transport mechanism and structural pharmacology of human urate transporter URAT1” (Cell Research, 2024)
